Earlier results on one compound are cited in patent US20200360276A1 (Aerovate Therapeutics, Inc., priority 2019, published 2020).

Series [1] deals with platelet-derived growth factor receptor (PDGFR).
For series [2] the following is noted: relative to imatinib parent compound.
For series [3] the following is noted: relative to imatinib parent compound. This is another data set of the same source.
The conditions of series [4]: aqueous solution, dependence on pH.

As for `Cc1ccc(NC(=O)c2ccc(CN3CCNCC3)cc2)cc1Nc1nccc(-c2cccnc2)n1` [N-desmethyl imatinib], the “inhibition of PDGFR” value in series [1] is reported as “potent inhibitor”. Also, in series [2], the half-life result is listed as “increased half-life relative to the parent imatinib compound”. The potency entry in series [3] is “same potency as the imatinib parent compound”. In series [4], the solubility result was “increases as the pH drops”.
